Laboratory results: publication PMC3164320 (Journal of medicinal chemistry, 2011)

System: HIV-1LAI
Test: Antiviral MTT assay in MT-2 cells exposed to HIV-1LAI
Type: cell-based

Structure (SMILES) | fold loss of antiviral activity compared to 22
COc1ccc(S(=O)(=O)N(CC(C)C)C[C@@H](O)[C@H](Cc2ccccc2)NC(=O)O[C@@H]2C[C@@H]3[C@H](OC)CO[C@@H]3C2)cc1 [Inhibitor 25, (3S,3aS,5R,6aR)-3-Methoxyhexahydro-2H-cyclopenta[b]furan-5-yl [(2S,3R)-3-Hydroxy-4-(N-iso-butyl-4-methoxyphenylsulfonamido)-1-phenylbutan-2-yl]carbamate] | ~5 fold
CC(C)CN(C[C@@H](O)[C@H](Cc1ccccc1)NC(=O)O[C@@H]1C[C@@H]2[C@H](O)CO[C@@H]2C1)S(=O)(=O)c1ccc(N)cc1 [Inhibitor 23, (3S,3aR,5R,6aR)-3-Hydroxyhexahydro-2H-cyclopenta[b]furan-5-yl [(2S,3R)-4-(4-Amino-N-isobutylphenylsulfonamido)-3-hydroxy-1-phenylbutan-2-yl]carbamate] | 3 fold
